Results on 1 compound are retold here after patent publication US20180243327A1, “USE OF SECOISOLARICIRESINOL DIGLUCOSIDES (SDGs) AND RELATED COMPOUNDS FOR PROTECTION AGAINST RADIATION DAMAGE” (THE TRUSTEES OF THE UNIVERSITY OF PENNSYLVANIA, priority 2015, published 2018).

Test [1] deals with human precision-cut lung slices (huPCLS). The test is described as follows: Proinflammatory cytokine gene levels (qPCR) in huPCLS after 4 Gy proton radiation. Format: cell-based. The settings on record: 50 Mm LGM2605 given 4 hours prior, 30 min and 24 hours post irradiation, normalized to 18S rRNA. Here is the method:
(§1) FIG. 2: Novel Ex vivo model of human lung: human precision-cut lung slices for radiation exposure. Human Precision-cut slice preparation: Slices (huPCLS) were obtained by inflating the donor human lung with low melting temperature agarose, sectioning, coring, and slicing, as shown above. The 350 μm thick slices were washed three times with culture medium to rid airways of agarose and are viable at 37 °C, up to a week.
FIG. 3: Evaluation of inflammatory markers, in huPCLS, at 30 min and 24 hours post 4 Gy proton radiation with or without SDG pre-treatment for 4 hours. Transcript levels of (A) IL1B, (B) IL6 and (C) TNF-alpha are normalized to 18S rRNA. *p<0.05.
(§2) Methods: Since the testing of our hypothesis in human tissues is critical and cannot be mechanistically pursued in patients, we pursued a novel approach, using an ex vivo model of human normal lung precision-cut sections (huPCLS), used for the first time to our knowledge, in radiation studies. The huPCLS consist of all relevant cell types of the respiratory tract, situated in their microanatomical environment, validated for pharmacological testing. Human lung sections were exposed to 4 Gy proton radiation in the presence of 0 and 50 Mm LGM2605, given 4 hours prior to exposure. Tissues were evaluated 30 min and 24 hours post irradiation for gene expression, protein level changes, and betagalactosidase activity, relevant to inflammation, oxidative stress and senescence.

Test [2] shares this test system. The test is described as follows: Antioxidant gene levels (qPCR) in huPCLS after 4 Gy proton radiation. Format: cell-based. The settings on record: 50 Mm LGM2605 given 4 hours prior, 30 min and 24 hours post irradiation, normalized to 18S rRNA. How it is done:
as §1
FIG. 4: qPCR analysis of (A) HMOX-1 and (B) NQO1 in huPCLS after 30 min and 24 hours post 4 Gy proton radiation with or without SDG pretreatment for 4 hours. Data are represented as average fold change from non-irradiated control±SEM. Transcript levels of tested genes are normalized to 18S rRNA. *p<0.05.
as §2, with “Human lung sections were exposed to 4 Gy proton radiation in the presence of 0 and 50 Mm LGM2605, given 4 hours prior to exposure.” left out

Test [3] has the same test system. Briefly: Senescence marker gene levels (qPCR) in huPCLS after 4 Gy proton radiation. The conditions noted are these: 50 Mm LGM2605 given 4 hours prior, 30 min and 24 hours post irradiation. It is filed as cell-based. How it is done: as §1
(§3) FIG. 6: LGM2605 decreases Proton Radiation-induced Senescence Markers, both at the Gene and Protein Level, in huPCLS. […] Transcript levels of tested genes are normalized to 18S rRNA.*p<0.05.
as §2
Background: Quantitative PCR measures a nucleic acid by following its amplification.

Test [4] has the same test system. Briefly: Senescence marker protein levels (Western Blot of whole tissue lysates) in huPCLS treated with proton. It is filed as cell-based. The settings on record: proton radiation, 50 Mm LGM2605 given 4 hours prior. Here is the method: as §1, §3, §2
In general terms: A western blot detects proteins with antibodies after separation by electrophoresis.

For test [5] the test system is unchanged. The test is described as follows: SA-β-Gal staining of huPCLS post proton radiation. Format: cell-based. The settings on record: 24 hour post proton radiation, 50 Mm LGM2605 given 4 hours prior. How it is done: as §1
FIG. 5: LGM2605 reduces senescent-like phenotype of huPCLS. […] A) SA-β-Gal staining of huPCLS at 24 hour post proton radiation. B) Quantification of the β-gal positive stained cells. Percentage change of the β-gal positive cells of the irradiated huPCLS compared to the nonirradiated huPCLS.
as §2, with “Human lung sections were exposed to 4 Gy proton radiation in the presence of 0 and 50 Mm LGM2605, given 4 hours prior to exposure.” left out

Test [6] can be described thus: Activity of synthetic SDG compared with natural SDG. The conditions noted are these: synthetic vs natural counterpart. An excerpt:
Using a mouse model of proton radiation exposure, we have identified dose-dependent pathophysiological changes in the lung. […] Thus, we further hypothesize that LGM2605 will be effective against proton-induced pulmonary damage, such as inflammation, oxidative stress and senescence.

Test [7] can be described thus: Antioxidant and free radical scavenging characteristics. An excerpt:
FIG. 1. Bioactive polyphenolic plant lignans in flaxseed and radiation Damage. Secoisolariciresinol diglucoside (SDG) is the major lignan phenolic in flaxseed. Due to complex SDG extraction, purification and enrichment methods from natural resources, SDG was chemically synthesized. […] (B) The structure of SDG.

`COc1cc(C[C@@H](CO[C@@H]2O[C@H](CO)[C@@H](O)[C@H](O)[C@H]2O)[C@H](CO[C@@H]2O[C@H](CO)[C@@H](O)[C@H](O)[C@H]2O)Cc2ccc(O)c(OC)c2)ccc1O` [LGM2605, secoisolariciresinol diglucoside]: in test [1], the “IL-1β (IL1B) inflammatory marker gene level” value is “reduction”, the “IL-6 (IL6) inflammatory marker gene level” value was “reduction” and the “TNFα inflammatory marker gene level” value is on record as “reduction”. For the same compound, in test [2], the “antioxidant HO (HMOX-1) gene level” value is “increase” and the “antioxidant NQO1 gene level” value is on record as “increase”. For the same compound, in test [3], the “CDKN2A senescent marker gene level” value is recorded as “reduces” and the “TP53 senescent marker gene level” value was “reduces”. For the same compound, in test [4], the “p16 senescent marker protein level” value is given as “reduces” and the “p53 senescent marker protein level” value was “reduces”. Also, the “senescent-like phenotype (SA-β-galactosidase positive staining)” value in test [5] is listed as “protects huPCLS from a senescent-like phenotype”. Moreover, the “activity relative to natural SDG” value in test [6] was “equipotent activity with its natural counterpart”. In addition, the “antioxidant and free radical scavenging characteristics” value in test [7] is “strong antioxidant and free radical, scavenging characteristics”.
